Earlier results as cited in paper PMC11053612, “Membrane-Fusing Vehicles for Re-Sensitizing Transporter-Mediated Multiple-Drug Resistance in Cancer” (Pharmaceutics, 2024).

Experiments:
Conditions in all cases: ref [23],[24],[25],[26]
[1] = biological target: T1, ABCB1 (Homo sapiens, UniProt P08183); parameters: method as in PMID 23470221, PMID 7999426, PMID 11309820, PMID 14973080; key: +: whether they are actively transported or not
T1 construct: expressed in transfected cells; host or cells: MDCK II MDR1 (canine kidney MDCK II, transfected; gift of Dr. A. Schinkel, Netherlands Cancer Institute)

[2] = tested on: ABCG2; parameters: method as in PMID 23470221, PMID 7999426, PMID 11309820, PMID 14973080; key: +: whether they are actively transported or not; −: whether they are actively transported or not
[3] = biological target: T2, ABCC1 (Homo sapiens, UniProt P33527); parameters: method as in PMID 23470221, PMID 7999426, PMID 11309820, PMID 14973080; key: +: whether they are actively transported or not; −: whether they are actively transported or not
T2 construct: expressed in transfected cells; host or cells: MDCK II MRP1 (canine kidney MDCK II, transfected; gift of Dr. A. Schinkel, Netherlands Cancer Institute)
T2 sequence (P33527 whole entry): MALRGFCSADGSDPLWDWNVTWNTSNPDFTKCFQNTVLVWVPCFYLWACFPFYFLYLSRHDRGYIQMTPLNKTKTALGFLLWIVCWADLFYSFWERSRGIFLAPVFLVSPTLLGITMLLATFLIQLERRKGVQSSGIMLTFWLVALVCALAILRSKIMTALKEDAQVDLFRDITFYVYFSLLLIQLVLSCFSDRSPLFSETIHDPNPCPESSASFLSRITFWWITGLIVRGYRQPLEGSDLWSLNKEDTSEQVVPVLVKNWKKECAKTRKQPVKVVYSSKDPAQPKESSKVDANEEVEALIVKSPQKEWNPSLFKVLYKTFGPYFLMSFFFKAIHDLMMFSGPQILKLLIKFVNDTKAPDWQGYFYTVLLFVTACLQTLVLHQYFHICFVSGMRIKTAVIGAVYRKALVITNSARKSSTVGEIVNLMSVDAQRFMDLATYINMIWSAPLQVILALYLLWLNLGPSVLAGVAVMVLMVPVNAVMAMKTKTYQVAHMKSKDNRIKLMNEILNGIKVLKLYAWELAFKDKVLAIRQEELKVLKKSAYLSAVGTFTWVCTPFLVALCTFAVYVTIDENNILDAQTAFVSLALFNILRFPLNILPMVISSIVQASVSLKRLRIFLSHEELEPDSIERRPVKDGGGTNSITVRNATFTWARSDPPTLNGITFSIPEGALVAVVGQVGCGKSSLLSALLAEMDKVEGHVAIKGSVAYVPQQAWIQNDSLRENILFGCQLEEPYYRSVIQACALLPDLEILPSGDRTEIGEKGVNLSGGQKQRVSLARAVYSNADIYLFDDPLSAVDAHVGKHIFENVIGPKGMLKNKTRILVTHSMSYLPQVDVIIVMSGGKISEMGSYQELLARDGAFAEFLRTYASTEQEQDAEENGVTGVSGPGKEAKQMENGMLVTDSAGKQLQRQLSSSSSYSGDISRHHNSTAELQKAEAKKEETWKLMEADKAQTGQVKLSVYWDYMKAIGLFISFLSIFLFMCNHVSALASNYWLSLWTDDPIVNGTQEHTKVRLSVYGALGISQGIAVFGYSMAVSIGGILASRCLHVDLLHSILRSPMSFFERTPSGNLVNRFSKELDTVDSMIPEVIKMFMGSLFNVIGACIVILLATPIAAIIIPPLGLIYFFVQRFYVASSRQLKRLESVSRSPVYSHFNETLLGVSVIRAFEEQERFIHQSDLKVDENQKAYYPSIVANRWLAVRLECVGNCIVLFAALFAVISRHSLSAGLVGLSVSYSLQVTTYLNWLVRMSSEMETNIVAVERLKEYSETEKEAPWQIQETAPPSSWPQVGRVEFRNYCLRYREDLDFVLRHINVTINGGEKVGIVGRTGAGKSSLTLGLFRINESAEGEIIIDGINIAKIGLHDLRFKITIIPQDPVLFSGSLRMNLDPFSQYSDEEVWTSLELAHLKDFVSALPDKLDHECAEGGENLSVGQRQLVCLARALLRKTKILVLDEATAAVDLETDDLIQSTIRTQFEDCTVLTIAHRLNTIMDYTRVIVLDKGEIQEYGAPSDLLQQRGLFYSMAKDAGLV

T1 sequence (P08183 whole entry): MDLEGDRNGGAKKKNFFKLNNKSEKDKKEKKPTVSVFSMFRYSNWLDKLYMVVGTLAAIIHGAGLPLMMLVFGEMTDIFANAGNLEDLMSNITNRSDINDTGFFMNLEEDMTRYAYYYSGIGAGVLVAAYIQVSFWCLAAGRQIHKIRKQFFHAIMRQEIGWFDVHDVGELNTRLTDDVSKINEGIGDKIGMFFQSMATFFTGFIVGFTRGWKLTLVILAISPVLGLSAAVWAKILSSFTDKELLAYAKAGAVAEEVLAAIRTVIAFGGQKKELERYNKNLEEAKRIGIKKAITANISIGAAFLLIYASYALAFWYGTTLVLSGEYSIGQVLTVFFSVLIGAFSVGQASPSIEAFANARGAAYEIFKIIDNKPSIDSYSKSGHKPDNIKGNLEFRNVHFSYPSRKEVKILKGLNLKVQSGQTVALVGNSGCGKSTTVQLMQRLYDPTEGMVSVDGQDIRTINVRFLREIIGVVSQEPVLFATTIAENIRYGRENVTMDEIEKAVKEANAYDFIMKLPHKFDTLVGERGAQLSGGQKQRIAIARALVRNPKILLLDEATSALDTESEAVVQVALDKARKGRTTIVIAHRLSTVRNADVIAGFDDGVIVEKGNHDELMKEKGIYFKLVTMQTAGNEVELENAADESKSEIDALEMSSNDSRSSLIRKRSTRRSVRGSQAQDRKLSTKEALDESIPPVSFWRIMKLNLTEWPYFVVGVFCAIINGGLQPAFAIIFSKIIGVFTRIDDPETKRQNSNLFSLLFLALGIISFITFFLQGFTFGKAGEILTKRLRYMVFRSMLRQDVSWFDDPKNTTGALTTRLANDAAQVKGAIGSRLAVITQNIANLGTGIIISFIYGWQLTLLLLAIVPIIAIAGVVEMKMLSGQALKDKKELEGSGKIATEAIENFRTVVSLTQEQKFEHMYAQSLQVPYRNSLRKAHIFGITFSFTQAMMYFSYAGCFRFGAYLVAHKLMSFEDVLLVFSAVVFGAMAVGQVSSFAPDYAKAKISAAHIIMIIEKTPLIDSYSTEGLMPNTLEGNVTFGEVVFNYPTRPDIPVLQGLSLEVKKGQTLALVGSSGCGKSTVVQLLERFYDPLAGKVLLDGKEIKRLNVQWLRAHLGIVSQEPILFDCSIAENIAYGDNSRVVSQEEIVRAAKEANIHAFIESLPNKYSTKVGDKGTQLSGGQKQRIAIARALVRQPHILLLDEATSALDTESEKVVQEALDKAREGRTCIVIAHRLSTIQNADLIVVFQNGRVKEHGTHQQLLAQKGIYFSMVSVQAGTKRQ

actively transported by ABCC1 [3] | SMILES | actively transported by ABCB1 [1] | actively transported by ABCG2 [2]
+ | O=C(O)CN(CC(=O)O)Cc1cc2c(cc1O)Oc1cc(O)c(CN(CC(=O)O)CC(=O)O)cc1C21OC(=O)c2ccccc21 [Calcein] | + | −
− | CCOc1ccc(-c2nc3ccc(-c4nc5ccc(N6CCN(C)CC6)cc5[nH]4)cc3[nH]2)cc1 [Hoechst 33324] |  | +
− | C=Cc1c(C)c2cc3nc(c4c5[nH]c(cc6nc(cc1[nH]2)C(C)=C6CC)c(C)c5C(=O)[C@@H]4C(=O)OC)[C@@H](CCC(=O)O)[C@@H]3C [Pheophorbide A] |  | +

SMILES | actively transported by ABCC1 [3] | actively transported by ABCB1 [1] | actively transported by ABCG2 [2]
COC(=O)c1ccccc1-c1c2ccc(=N)cc-2oc2cc(N)ccc12 [Rhodamine 123] | + | + | −
